Measured values: US11999739B2, “Antimicrobials methods of making and using the same” (BIOVERSYS AG, priority 2016, dated 2024)

How the values were obtained:
[1] = tested on: Staphylococcus aureus (S. aureus) 11540 strain; experiment: Standard microdilution MIC assay, S. aureus; format: cell-based
Description: (§1) The in vitro activity of the compounds of the present disclosure can be determined. Antimicrobial testing is typically performed to determine the minimum inhibitory concentration (MIC). Minimum inhibitory concentrations (MICs) are determined by the microdilution method in a final volume of 100 μl according to protocols outlined by The Clinical and Laboratory Standards Institute (CLSI). Performance standards for reference strains are assessed within the same experimental design to maintain quality control. See, for example, Clinical Laboratory Standards Institute: Methods for dilution antimicrobial susceptibility tests for bacteria that grow aerobically M7-A8. Approved Standard-Eighth Edition. Wayne, PA: CLSI; December 2008; and Clinical Laboratory Standards Institute: Performance Standards for Antimicrobial Susceptibility Testing M100-S20; Approved Standard-Twentieth Edition. Wayne, PA: CLSI; June 2010.
(§2) The compounds of the present disclosure were tested for antimicrobial activity. The Compounds 1-293 were run against Escherichia coli (E co/i) strain ATCC25922 and against Staphylococcus aureus (S. aureus) 11540 strain using a standard microdilution assay to determine minimum inhibitory concentrations (MICs). […] It will be recognized by one skilled in the art that the compounds can be assessed against other bacterial organisms and that the presentation of data for activity against Escherichia coli and Staphylococcus aureus are illustrative and in no way is intended to limit the scope of the present disclosure. The compounds of the present disclosure can be assayed against a range of other microorganisms depending upon the performance activity desired to be gathered. Furthermore, the “+” and “−” representation and the selection of a cutoff value of 16 micrograms/mL is also illustrative and in no way is intended to limit the scope of the present disclosure.

[2] = tested on: Escherichia coli strain ATCC25922; experiment: Standard microdilution MIC assay, E. coli; format: cell-based
Description: as §1, §2

How did the MIC [1] turn out when `C=CC(CCNC(=N)CF)NCc1ccc(-n2cc3cc(-c4cc(CCC(C)(C)CN)cc(Cl)c4F)[nH]c3nc2=O)cc1` (stereo not shown) [Compound 27] was run?
Its MIC is ≤ 16 µg/mL.

What about the MIC [2] of the same compound?
Its MIC is ≤ 16 µg/mL.

How did the MIC [1] turn out when `C[C@H](N)CCCc1cc(Cl)c(F)c(-c2cc3cn(-c4ccc([C@@H]5CNC[C@H](CCNC(=N)CF)O5)cc4)c(=O)nc3[nH]2)c1` [Compound 28] was run?
Its MIC is ≤ 16 µg/mL.

And the MIC [2]?
The MIC was ≤ 16 µg/mL.

With `CC(=N)NCC[C@@H]1CCC[C@@H](c2ccc(-n3cc4cc(-c5cc(CCC[C@H](C)NC(C)=N)cc(Cl)c5F)[nH]c4nc3=O)cc2)N1` [Compound 29] as the compound, how does the MIC [1] read?
Its MIC is ≤ 16 µg/mL.

What about the MIC [2] of the same compound?
Its MIC is ≤ 16 µg/mL.

How did the MIC [1] turn out when `C=C[C@@H](N)CCCc1cc(Cl)c(F)c(-c2cc3cn(-c4ccc(CN[C@@H](C=C)CCNC(C)=N)cc4)c(=O)nc3[nH]2)c1` [Compound 30] was run?
Its MIC is ≤ 16 µg/mL.

And the MIC [2]?
The MIC was ≤ 16 µg/mL.

For `C=C[C@@H](N)CCCc1cc(Cl)c(F)c(-c2cc3cn(-c4ccc(CN[C@H](C=C)CCNC(C)=N)cc4)c(=O)nc3[nH]2)c1` [Compound 31], which MIC [1] is on record?
Its MIC is ≤ 16 µg/mL.

And the MIC [2]?
Its MIC is ≤ 16 µg/mL.

How did the MIC [1] turn out when `CC(=N)NCC[C@@H]1CNC[C@@H](c2ccc(-n3cc4cc(-c5cc(CCC[C@H](C)N)cc(Cl)c5F)[nH]c4nc3=O)cc2)O1` [Compound 32] was run?
Its MIC is ≤ 16 µg/mL.

What about the MIC [2] of the same compound?
The MIC was ≤ 16 µg/mL.

Which results are given for `C=CCC(=N)NCCC(C=C)NCc1ccc(-n2cc3cc(-c4cc(CCC[C@H](C)N)cc(Cl)c4F)[nH]c3nc2=O)cc1` (stereo partly shown) [Compound 33]?
MIC [1]: ≤ 16 µg/mL; MIC [2]: ≤ 16 µg/mL

Which MIC [1] does the source give for `C=CC(CCNC(=N)COC)NCc1ccc(-n2cc3cc(-c4cc(CCC[C@H](C)N)cc(Cl)c4F)[nH]c3nc2=O)cc1` (stereo partly shown) [Compound 34] here?
Its MIC is ≤ 16 µg/mL.

And the MIC [2]?
The MIC was ≤ 16 µg/mL.

With `CC(=N)NCC[C@H](CO)NCc1ccc(-n2cc3cc(-c4cc(CCC[C@@H](N)CO)cc(Cl)c4F)[nH]c3nc2=O)cc1` [Compound 35] as the compound, how does the MIC [1] read?
Its MIC is ≤ 16 µg/mL.

And the MIC [2]?
Its MIC is ≤ 16 µg/mL.

For `C=C[C@@H](N)CCCc1cc(Cl)c(F)c(-c2cc3cn(-c4ccc(CN[C@@H](C=C)CCNC(=N)CF)cc4)c(=O)nc3[nH]2)c1` [Compound 37], which MIC [1] is on record?
The MIC was ≤ 16 µg/mL.

What about the MIC [2] of the same compound?
The MIC was ≤ 16 µg/mL.

What does the source list for `C=C[C@@H](N)CCCc1cc(Cl)c(F)c(-c2cc3cn(-c4ccc(CN[C@H](C=C)CCNC(=N)CF)cc4)c(=O)nc3[nH]2)c1` [Compound 38]?
MIC [1]: ≤ 16 µg/mL; MIC [2]: ≤ 16 µg/mL

What does the source list for `C=C[C@@H](N)CCCc1cc(Cl)c(F)c(-c2cc3cn(-c4ccc(CN[C@@H](CO)CCNC(C)=N)cc4)c(=O)nc3[nH]2)c1` [Compound 39]?
MIC [1]: ≤ 16 µg/mL; MIC [2]: ≤ 16 µg/mL

Which MIC [1] does the source give for `CC(=N)NCC[C@H](CO)NCc1ccc(-n2cc3cc(-c4cc(CCCC(C)(C)N)cc(Cl)c4F)[nH]c3nc2=O)cc1` [Compound 40] here?
Its MIC is ≤ 16 µg/mL.

What about the MIC [2] of the same compound?
Its MIC is ≤ 16 µg/mL.

`CSCC(=N)NCC[C@H](CO)NCc1ccc(-n2cc3cc(-c4cc(CCC[C@H](C)N)cc(Cl)c4F)[nH]c3nc2=O)cc1` [Compound 41] was tested. Which MIC [1] did it give?
Its MIC is ≤ 16 µg/mL.

And the MIC [2]?
Its MIC is ≤ 16 µg/mL.

Which results are given for `CSCC(=N)NCC[C@@H]1CCC[C@@H](c2ccc(-n3cc4cc(-c5cc(CCC[C@H](C)N)cc(Cl)c5F)[nH]c4nc3=O)cc2)N1` [Compound 42]?
MIC [1]: ≤ 16 µg/mL; MIC [2]: ≤ 16 µg/mL

For `C=C[C@@H](CCNC(=N)CF)NCc1ccc(-n2cc3cc(-c4cc(CCC[C@@H](N)C(F)(F)F)cc(Cl)c4F)[nH]c3nc2=O)cc1` [Compound 43], which MIC [1] is on record?
The MIC was ≤ 16 µg/mL.

What about the MIC [2] of the same compound?
The MIC was ≤ 16 µg/mL.

With `C=C[C@H](CCNC(=N)CF)NCc1ccc(-n2cc3cc(-c4cc(CCC[C@@H](N)C(F)(F)F)cc(Cl)c4F)[nH]c3nc2=O)cc1` [Compound 44] as the compound, how does the MIC [1] read?
Its MIC is ≤ 16 µg/mL.

And the MIC [2]?
The MIC was > 16 µg/mL.

How did the MIC [1] turn out when `CC(=N)NCC[C@@H]1CNC[C@H](c2ccc(-n3cc4cc(-c5cc(CCC[C@H](C)N)cc(Cl)c5F)[nH]c4nc3=O)cc2)N1` [Compound 45] was run?
The MIC was ≤ 16 µg/mL.

What about the MIC [2] of the same compound?
The MIC was ≤ 16 µg/mL.

Which results are given for `C[C@H](N)CCCc1cc(Cl)c(F)c(-c2cc3cn(-c4ccc([C@H]5CNC[C@@H](CCNC(=N)CF)N5)cc4)c(=O)nc3[nH]2)c1` [Compound 46]?
MIC [1]: ≤ 16 µg/mL; MIC [2]: ≤ 16 µg/mL

What does the source list for `CC(=N)NCC[C@@H]1COC[C@@H](c2ccc(-n3cc4cc(-c5cc(CCC[C@H](C)N)cc(Cl)c5F)[nH]c4nc3=O)cc2)N1` [Compound 47]?
MIC [1]: ≤ 16 µg/mL; MIC [2]: ≤ 16 µg/mL

`CC(=N)NCC[C@H]1CNC[C@@H](c2ccc(-n3cc4cc(-c5cc(CCC[C@H](C)N)cc(Cl)c5F)[nH]c4nc3=O)cc2)N1` [Compound 48] was tested. Which MIC [1] did it give?
The MIC was ≤ 16 µg/mL.

What about the MIC [2] of the same compound?
The MIC was ≤ 16 µg/mL.

How did the MIC [1] turn out when `C[C@H](N)CCCc1cc(Cl)c(F)c(-c2cc3cn(-c4ccc([C@@H]5CNC[C@H](CCNC(=N)CF)N5)cc4)c(=O)nc3[nH]2)c1` [Compound 49] was run?
Its MIC is ≤ 16 µg/mL.

And the MIC [2]?
Its MIC is ≤ 16 µg/mL.

Which results are given for `C[C@H](N)CCCc1cc(Cl)c(F)c(-c2cc3cn(-c4ccc([C@@H]5CNC[C@@H](CCNC(=N)CF)N5)cc4)c(=O)nc3[nH]2)c1` [Compound 51]?
MIC [1]: ≤ 16 µg/mL; MIC [2]: ≤ 16 µg/mL
